Literature values as cited in patent US8455508B2, “Sustained release parenteral formulations of buprenorphine” (priority 2007, dated 2013).

Conditions: in oil

**Q.** For CCCCCCCCCC(=O)Oc1ccc2c3c1OC1C4(OC)CCC5(CC4C(C)(O)C(C)(C)C)C(C2)N(CC2CC2)CCC315 (stereo not shown) [buprenorphine decanoate], which “duration of action relative to buprenorphine HCl in saline” value is on record?
**A.** Its value is 14 fold.
